Laboratory results as given in US20230159469A1, “NOVEL PHTHALAZINE DERIVATIVE HAVING ECTONUCLOEOTIDE PYROPHOSPHATASE/PHOSPHODIESTE RASE INHIBITORY ACTIVITY, AND USE THEREOF” (TXINNO BIOSCIENCE INC., priority 2020, published 2023).
Where a name gives a salt, the structure may show the parent alone.

Molecular target: T1, human recombinant ENPP1 (Homo sapiens, UniProt P22413)
T1 construct: purchased R & D systems
T1 sequence (P22413 1-925): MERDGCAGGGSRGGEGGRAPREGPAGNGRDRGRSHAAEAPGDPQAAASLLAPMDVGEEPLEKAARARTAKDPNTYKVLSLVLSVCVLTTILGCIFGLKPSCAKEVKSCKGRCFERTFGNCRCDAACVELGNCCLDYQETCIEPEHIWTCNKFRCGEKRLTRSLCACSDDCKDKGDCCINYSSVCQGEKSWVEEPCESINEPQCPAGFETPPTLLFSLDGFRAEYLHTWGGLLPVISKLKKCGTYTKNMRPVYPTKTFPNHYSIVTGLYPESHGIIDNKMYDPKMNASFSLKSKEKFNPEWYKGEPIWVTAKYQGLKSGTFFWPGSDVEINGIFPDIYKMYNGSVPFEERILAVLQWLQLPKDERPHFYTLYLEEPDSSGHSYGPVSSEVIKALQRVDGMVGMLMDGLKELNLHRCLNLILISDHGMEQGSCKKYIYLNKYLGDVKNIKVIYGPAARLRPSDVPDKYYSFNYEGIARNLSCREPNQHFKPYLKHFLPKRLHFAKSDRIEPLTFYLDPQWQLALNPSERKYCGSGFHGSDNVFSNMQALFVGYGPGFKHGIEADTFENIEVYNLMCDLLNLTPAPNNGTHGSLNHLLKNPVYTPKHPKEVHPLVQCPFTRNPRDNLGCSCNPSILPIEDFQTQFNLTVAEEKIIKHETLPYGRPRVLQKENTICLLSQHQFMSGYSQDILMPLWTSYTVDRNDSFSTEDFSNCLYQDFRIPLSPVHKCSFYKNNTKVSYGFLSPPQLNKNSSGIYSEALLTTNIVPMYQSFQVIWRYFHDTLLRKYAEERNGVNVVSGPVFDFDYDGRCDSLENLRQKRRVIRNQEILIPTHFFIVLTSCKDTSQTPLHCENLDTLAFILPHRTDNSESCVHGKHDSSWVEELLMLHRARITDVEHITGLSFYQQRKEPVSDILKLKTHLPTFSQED
Experiment: ENPP1 enzyme assay with cGAMP substrate (AMP-Glo luminescence)
Assay type: biochemical
Details: human recombinant ENPP1 3 ng/reaction, cGAMP 5 μM, 37° C. 90 minutes, read-out: Enzymatic activity (ENPP1 IC50)
Procedure, shortened: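 Human ENPP1 hydrolysis of 5 μM cGAMP was run for 90 min at 37° C in 50 mM Tris pH 8.5, 250 mM NaCl, 0.5 mM CaCl2, 1 μM ZnCl2, 5% glycerol, 1% DMSO. AMP product was quantified by AMP-Glo luminescence; IC50 came from 3-parameter fits of % residual activity, averaged over at least two runs.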

Row | SMILES | IC50 [µM]
1 | COc1cc2c(-c3ccc(CNS(N)(=O)=O)cc3)nn(C)c(=O)c2cc1OC [Compound No. 108, N-(4-(6,7-dimethoxy-3-methyl-4-oxo-3,4-dihydrophthalazin-1-yl)benzyl)sulfamide hydrochloride] | 1 to 10
2 | COc1cc2c(-c3cccc(CNS(N)(=O)=O)c3)n[nH]c(=O)c2cc1OC [Compound No. 109, N-(3-(6,7-dimethoxy-4-oxo-3,4-dihydrophthalazin-1-yl)-benzyl) sulfamide] | 1 to 10
3 | COc1cc2c(-c3cccc(CNS(N)(=O)=O)c3)nn(C)c(=O)c2cc1OC [Compound No. 110, N-(3-(6,7-dimethoxy-3-methyl-4-oxo-3,4-dihydrophthalazin-1-yl)-benzyl) sulfamide] | 1 to 10
4 | COc1cc2c(-c3ccc(CNS(N)(=O)=O)c(F)c3)n[nH]c(=O)c2cc1OC [Compound No. 111, N-(4-(6,7-dimethoxy-4-oxo-3,4-dihydrophthalazin-1-yl)-2-fluorobenzyl)sulfamide hydrochloride] | < 1
5 | COc1cc2c(-c3ccc(CNS(N)(=O)=O)cc3F)n[nH]c(=O)c2cc1OC [Compound No. 112, N-(4-(6,7-dimethoxy-4-oxo-3,4-dihydrophthalazin-1-yl)-3-fluorobenzyl)sulfamide hydrochloride] | 1 to 10
6 | COc1cc2c(-c3ccc(CN(C)S(N)(=O)=O)c(F)c3)n[nH]c(=O)c2cc1OC [Compound No. 113, N-(4-(6,7-dimethoxy-4-oxo-3,4-dihydrophthalazin-1-yl)-2-fluorobenzyl)-N-methyl sulfamide hydrochloride] | 1 to 10
7 | COc1cc2c(-c3ccc(CN(C)S(N)(=O)=O)cc3F)n[nH]c(=O)c2cc1OC [Compound No. 114, N-(4-(6,7-dimethoxy-4-oxo-3,4-dihydrophthalazin-1-yl)-3-fluorobenzyl)-N-methyl sulfamide hydrochloride] | 1 to 10
8 | COc1cc2c(-c3ccc(CNS(N)(=O)=O)c(F)c3F)n[nH]c(=O)c2cc1OC [Compound No. 115, N-(4-(6,7-dimethoxy-4-oxo-3,4-dihydrophthalazin-1-yl)-2,3-difluorobenzyl)sulfamide hydrochloride] | 1 to 10
9 | COc1cc2c(-c3ccc(CNS(N)(=O)=O)cc3C(F)(F)F)n[nH]c(=O)c2cc1OC [Compound No. 116, hydrochloride] | 1 to 10
10 | COc1cc2c(-c3ccc(CN(C)S(N)(=O)=O)c(F)c3F)n[nH]c(=O)c2cc1OC [Compound No. 117, N-(4-(6,7-dimethoxy-4-oxo-3,4-dihydrophthalazin-1-yl)-2,3-difluorobenzyl)-N-methyl sulfamide hydrochloride] | > 10
11 | COc1cc2c(-c3ccc(CN(C)S(N)(=O)=O)cc3C(F)(F)F)n[nH]c(=O)c2cc1OC [Compound No. 118, hydrochloride] | > 10
12 | COc1cc2c(-c3ccc(CNS(N)(=O)=O)c(C(F)(F)F)c3)n[nH]c(=O)c2cc1OC [Compound No. 119, hydrochloride] | 1 to 10
13 | COc1cc2c(-c3ccc(CN(C)S(N)(=O)=O)c(C(F)(F)F)c3)n[nH]c(=O)c2cc1OC [Compound No. 120, hydrochloride] | > 10
14 | NS(=O)(=O)N1CCc2ccc(-c3n[nH]c(=O)c4ccccc34)cc2C1 [Compound No. 121, 7-(4-oxo-3,4-dihydrophthalazin-1-yl)-3,4-dihydroisoquinoline-2(1H) sulfamide hydrochloride] | < 1
15 | COc1cc2c(-c3ccc4c(c3)CN(S(N)(=O)=O)CC4)n[nH]c(=O)c2cc1OC [Compound No. 122, 7-(6,7-dimethoxy-4-oxo-3,4-dihydrophthalazin-1-yl)-3,4-dihydroisoquinoline-2(1H)-sulfamide] | < 1
16 | CC(NS(N)(=O)=O)c1ccc(-c2n[nH]c(=O)c3ccccc23)cc1 (stereo not drawn) [Compound No. 123, N-(1-(4-(4-oxo-3,4-dihydrophthalazin-1-yl)phenyl)ethyl)sulfamide hydrochloride] | < 1
17 | C[C@@H](NS(N)(=O)=O)c1ccc(-c2n[nH]c(=O)c3ccccc23)cc1 [Compound No. 124, (R)-N-(1-(4-(4-oxo-3,4-dihydrophthalazin-1-yl)phenyl)ethyl)sulfamide hydrochloride] | < 1

Row | SMILES | IC50 [µM]
18 | CC(C)(NS(N)(=O)=O)c1ccc(-c2n[nH]c(=O)c3ccccc23)cc1 [Compound No. 125, N-(2-(4-(4-oxo-3,4-dihydrophthalazin-1-yl)phenyl)propan-2-yl)sulfamide hydrochloride] | 1 to 10
19 | NS(=O)(=O)NCc1ccc(-c2n[nH]c(=O)c3ccccc23)cc1C(F)(F)F [Compound No. 126, N-(4-(4-oxo-3,4-dihydrophthalazin-1-yl)-2-(trifluoromethyl)benzyl)sulfamide hydrochloride] | < 1
20 | CN(Cc1ccc(-c2n[nH]c(=O)c3ccccc23)cc1)S(N)(=O)=O [Compound No. 127, N-methyl-N-(4-(4-oxo-3,4-dihydrophthalazin-1-yl)benzyl)sulfamide] | < 1
21 | NS(=O)(=O)N1CCc2cc(-c3n[nH]c(=O)c4ccccc34)ccc2C1 [Compound No. 128, 6-(4-oxo-3,4-dihydrophthalazin-1-yl-3,4-dihydroisoquinoline-2(1H)-sulfonamide hydrochloride] | 1 to 10
22 | Cn1nc(-c2ccc3c(c2)CCN(S(N)(=O)=O)C3)c2ccccc2c1=O [Compound No. 129, 6-(3-methyl-4-oxo-3,4-dihydrophthalazin-1-yl)-3,4-dihydroisoquinoline-2(1H)-sulfonamide hydrochloride] | 1 to 10
23 | COc1cc2c(-c3ccc4c(c3)CCN(S(N)(=O)=O)C4)n[nH]c(=O)c2cc1OC [Compound No. 130, 6-(6,7-dimethoxy-4-oxo-3,4-dihydrophthalazin-1-yl)-3,4-dihydroisoquinoline-2(1H)-sulfonamide hydrochloride] | 1 to 10
24 | COc1cc2c(-c3ccc4c(c3)CCN(S(N)(=O)=O)C4)nn(C)c(=O)c2cc1OC [Compound No. 131, 6-(6,7-dimethoxy-3-methyl-4-oxo-3,4-dihydrophthalazin-1-yl)-3,4-dihydroisoquinoline-2(1H)-sulfonamide hydrochloride] | 1 to 10
25 | CC(C)(C)OC(=O)NCC1CCN(c2n[nH]c(=O)c3ccccc23)CC1 [Compound No. 132, tert-butyl ((1-(4-oxo-3,4-dihydrophthalazin-1-yl)piperidin-4-yl)methyl)carbamate] | > 10
26 | COc1cc2c(N3CCC(CNC(=O)OC(C)(C)C)CC3)n[nH]c(=O)c2cc1OC [Compound No. 133, tert-butyl ((1-(6,7-dimethoxy-4-oxo-3,4-dihydrophthalazin-1-yl)piperidin-4-yl)methyl)carbamate] | > 10
27 | NCC1CCN(c2n[nH]c(=O)c3ccccc23)CC1 [Compound No. 134, 4-(4-(aminomethyl)piperidin-1-yl)phthalazin-1(2H)-one hydrochloride] | 1 to 10
28 | COc1cc2c(N3CCC(CN)CC3)n[nH]c(=O)c2cc1OC [Compound No. 135, 4-(4-(aminomethyl)piperidin-1-yl)-6,7-dimethoxyphthalazin-1(2H)-one hydrochloride] | > 10
29 | CC(C)(C)OC(=O)NS(=O)(=O)NCC1CCN(c2n[nH]c(=O)c3ccccc23)CC1 [Compound No. 136, tert-butyl N-((1-(4-oxo-3,4-dihydrophthalazin-1-yl)piperidin-4-yl)methyl)sulfamoyl carbamate] | > 10
30 | COc1cc2c(N3CCC(CNS(=O)(=O)NC(=O)OC(C)(C)C)CC3)n[nH]c(=O)c2cc1OC [Compound No. 137, tert-butyl N-((1-(6,7-dimethoxy-4-oxo-3,4-dihydrophthalazin-1-yl)piperidin-4-yl)methyl)sulfamoyl carbamate] | > 10
31 | NS(=O)(=O)NCC1CCN(c2n[nH]c(=O)c3ccccc23)CC1 [Compound No. 138, N-((1-(4-oxo-3,4-dihydrophthalazin-1-yl)piperidin-4-yl)methyl)sulfamide hydrochloride] | < 1
32 | COc1cc2c(N3CCC(CNS(N)(=O)=O)CC3)n[nH]c(=O)c2cc1OC [Compound No. 139, N-((1-(6,7-dimethoxy-4-oxo-3,4-dihydrophthalazin-1-yl)piperidin-4-yl)methyl)sulfamide hydrochloride] | < 1
33 | COc1cc2c(Nc3ccc(NS(N)(=O)=O)cc3)nn(C)c(=O)c2cc1OC [Compound No. 140, N-(4-(6,7-dimethoxy-3-methyl-4-oxo-3,4-dihydrophthalazin-1-yl)-amino)phenyl)sulfamide hydrochloride] | > 10
